By MIC is commonly meant the lowest concentration found to suppress growth. Low values mean greater potency, high ones weaker potency.

In brackets after ≈: the same amount, converted by molar mass. Several values for one entry are separate records, joined by “and”; a condition that tells them apart may be missing. Identical values can stand only once.

Test systems include Bacillus subtilis 168; Escherichia coli B; Pseudomonas aeruginosa; Staphylococcus aureus; Acinetobacter baumannii.
Holding throughout (experiment): ≥ marks a high value that may be exact or a test limit, other limits are often not marked, values filed in µg/mL are converted to µM
For test [1], the system named is Acinetobacter baumannii ATCC 19606.
The test system of test [2] is Escherichia coli ATCC 25922.
The subject of test [3] is Pseudomonas aeruginosa ATCC 27853.
Test [4] concerns Staphylococcus aureus ATCC 25923.
The subject of test [5] is Bacillus subtilis ATCC 23857.
The test system of test [6] is Enterococcus faecalis ATCC 29212.
The test system of test [7] is Klebsiella pneumoniae ATCC 700603.
The subject of test [8] is Staphylococcus epidermidis ATCC 12228.
For test [9], the system named is Pseudomonas aeruginosa ATCC 9027.
In test [10] the test system is Klebsiella pneumoniae ATCC 13883.
In test [11] the test system is Pseudomonas aeruginosa PAO1.
Test [12] relates to Salmonella enterica subsp. enterica serovar Typhimurium ATCC 14028.

Take `CC(C)C[C@H](NC(=O)[C@H](CC(C)C)NC(=O)[C@H](CCCCN)NC(=O)[C@H](CCCCN)NC(=O)[C@H](CC(C)C)NC(=O)[C@H](CS)NC(=O)[C@H](CCCCN)NC(=O)[C@H](CC(C)C)NC(=O)[C@@H](N)Cc1ccccc1)C(N)=O` [FLKCLKKLL]: the MIC in test [1] stood at 14.5 µM (≈ 16 µg/mL); in [2], 14.5 µM (≈ 16 µg/mL); in test [3], 14.5 µM (≈ 16 µg/mL); in test [4], 57.9 µM (≈ 63.9 µg/mL).
Regarding `C[C@@H](O)[C@H](NC(=O)[C@H](CCCCN)NC(=O)[C@H](Cc1c[nH]c2ccccc12)NC(=O)[C@H](CCCN=C(N)N)NC(=O)[C@H](CCCCN)NC(=O)[C@H](Cc1ccccc1)NC(=O)[C@H](Cc1ccccc1)NC(=O)CN)C(=O)N[C@@H](Cc1ccccc1)C(=O)N[C@@H](Cc1ccccc1)C(N)=O` [GFFKRWKTFF], the MIC came to 64 µM (≈ 87.2 µg/mL) in [1]; 16 µM (≈ 21.8 µg/mL) in test [5]; 64 µM (≈ 87.2 µg/mL) in test [6]; 16 µM (≈ 21.8 µg/mL) in [2]; 32 µM (≈ 43.6 µg/mL) in test [7]; 8 µM (≈ 10.9 µg/mL) in [3]. The minimal inhibitory concentration (MIC) stood at 16 µM (≈ 21.8 µg/mL) in test [4] and 4 µM (≈ 5.45 µg/mL) in test [8].
Take `CC[C@H](C)[C@H](NC(=O)CNC(=O)[C@H](C)NC(=O)[C@@H](NC(=O)[C@@H](NC(=O)CN)[C@@H](C)CC)[C@@H](C)CC)C(=O)NCC(=O)N[C@H](C(=O)N[C@@H](CCCCN)C(=O)N[C@H](C(=O)N[C@@H](CCCCN)C(=O)N[C@@H](CCCCN)C(N)=O)[C@@H](C)CC)[C@@H](C)CC` [GIIAGIGIKIKK]: the MIC was at least 128 µM in test [5] and 64 µM (≈ 77.4 µg/mL) in test [2].
The matching figures for `CC[C@H](C)[C@H](NC(=O)CN)C(=O)N[C@H](C(=O)N[C@@H](C)C(=O)NCC(=O)N[C@H](C(=O)N[C@H](C(=O)N[C@H](C(=O)N[C@@H](CCCCN)C(=O)N[C@@H](C)C(=O)N[C@@H](CCCCN)C(=O)N[C@@H](CCCCN)C(N)=O)[C@@H](C)CC)[C@@H](C)CC)[C@@H](C)CC)[C@@H](C)CC` [GIIAGIIIKAKK]: at least 64 µM and 128 µM (≈ 157 µg/mL).
For the molecule `CC[C@H](C)[C@H](NC(=O)[C@H](CC(C)C)NC(=O)[C@H](Cc1cnc[nH]1)NC(=O)CNC(=O)[C@H](CC(C)C)NC(=O)[C@@H](NC(=O)[C@H](CCCCN)NC(=O)[C@@H]1CCCN1C(=O)[C@H](Cc1c[nH]c2ccccc12)NC(=O)[C@H](CCSC)NC(=O)CN)[C@@H](C)CC)C(=O)N[C@@H](CCCN=C(N)N)C(N)=O` [GMWPKILGHLIR], the MIC was 3 µM (≈ 4.26 µg/mL) in the test on Bacillus subtilis 168, at least 33.3 µM in the test on Escherichia coli B, over 100 µM against Pseudomonas aeruginosa and 75 µM (≈ 106 µg/mL) against Staphylococcus aureus.
Consider `CC[C@H](C)[C@H](NC(=O)[C@H](CCCCN)NC(=O)[C@H](CCCCN)NC(=O)[C@H](C)NC(=O)[C@@H](NC(=O)[C@H](C)NC(=O)[C@H](C)NC(=O)[C@H](CC(C)C)NC(=O)[C@H](C)NC(=O)[C@H](CCCCN)NC(=O)[C@H](CC(C)C)NC(=O)[C@H](CC(N)=O)NC(=O)CN)C(C)C)C(=O)N[C@@H](CC(C)C)C(N)=O` [GNLKALAAVAKKIL], for which the MIC in test [5] is 8 µM (≈ 11.3 µg/mL); in [2], 64 µM (≈ 90.2 µg/mL); in test [7], 128 µM (≈ 180 µg/mL); in test [9], 64 µM (≈ 90.2 µg/mL); in test [4], over 128 µM.
As to `CC[C@H](C)[C@H](NC(=O)[C@H](Cc1cnc[nH]1)NC(=O)[C@H](CCCCN)NC(=O)[C@H](CC(C)C)NC(=O)[C@H](CC(C)C)NC(=O)[C@H](CO)NC(=O)[C@H](CCSC)NC(=O)[C@H](Cc1c[nH]c2ccccc12)NC(=O)[C@H](CCCCN)NC(=O)[C@@H](N)Cc1cnc[nH]1)C(=O)N[C@@H](CC(C)C)C(=O)N[C@@H](CCCCN)C(N)=O` [HKWMSLLKHILK], the MIC in the test with Bacillus subtilis 168 was 1.5 µM (≈ 2.3 µg/mL); in the test with Escherichia coli B, 3.5 µM (≈ 5.37 µg/mL); against Pseudomonas aeruginosa, 100 µM (≈ 153 µg/mL); with Staphylococcus aureus it was 38.3 µM (≈ 58.7 µg/mL).
With `CC[C@H](C)[C@H](NC(=O)[C@H](CCCN=C(N)N)NC(=O)[C@@H](NC(=O)[C@@H](NC(=O)[C@@H]1CCCN1C(=O)[C@@H](NC(=O)[C@@H](NC(=O)[C@@H](NC(=O)[C@@H]1CCCN1C(=O)CNC(=O)[C@H](Cc1ccc(O)cc1)NC(=O)[C@H](CCCCN)NC(=O)[C@H](CCCCN)NC(=O)[C@H](Cc1c[nH]c2ccccc12)NC(=O)[C@H](C)NC(=O)[C@H](CCCN=C(N)N)NC(=O)[C@H](CC(C)C)NC(=O)[C@@H](NC(=O)[C@H](CCCCN)NC(=O)[C@H](CCCN=C(N)N)NC(=O)CNC(=O)[C@H](CC(C)C)NC(=O)[C@H](CCCCN)NC(=O)[C@H](CCCN=C(N)N)NC(=O)[C@H](CC(C)C)NC(=O)CNC(=O)[C@@H](N)CCCCN)[C@@H](C)CC)[C@@H](C)CC)[C@@H](C)CC)C(C)C)[C@@H](C)CC)[C@@H](C)CC)C(=O)O` [KGLRKLGRKILRAWKKYGPIIVPIIRI], the MIC amounted to 2.22 µM (≈ 7.07 µg/mL) in test [1] and 3.14 µM (≈ 10 µg/mL) with Acinetobacter baumannii.
Regarding `CC[C@H](C)[C@H](NC(=O)[C@H](CCCCN)NC(=O)[C@H](CCCCN)NC(=O)[C@H](C)NC(=O)[C@@H](NC(=O)[C@H](C)NC(=O)[C@H](CC(C)C)NC(=O)[C@H](CC(C)C)NC(=O)[C@H](C)NC(=O)[C@H](CCCCN)NC(=O)[C@H](CC(C)C)NC(=O)[C@H](CC(N)=O)NC(=O)[C@@H](N)CCCCN)C(C)C)C(=O)N[C@@H](CC(C)C)C(N)=O` [KNLKALLAVAKKIL], the MIC in test [5] turned out to be 8 µM (≈ 12.2 µg/mL); in [2], 8 µM (≈ 12.2 µg/mL); in test [7], 16 µM (≈ 24.4 µg/mL); in [9], 8 µM (≈ 12.2 µg/mL); in test [4], 64 µM (≈ 97.4 µg/mL).
For the molecule `CC[C@H](C)[C@H](NC(=O)[C@H](CCCCN)NC(=O)[C@H](CCCCN)NC(=O)[C@H](C)NC(=O)[C@@H](NC(=O)[C@H](C)NC(=O)CNC(=O)[C@H](CC(C)C)NC(=O)[C@H](C)NC(=O)[C@H](CCCCN)NC(=O)[C@H](CC(C)C)NC(=O)[C@H](CC(N)=O)NC(=O)[C@@H](N)CC(C)C)C(C)C)C(=O)N[C@@H](CC(C)C)C(N)=O` [LNLKALGAVAKKIL], the MIC in test [5] is at least 32 µM; in test [2] it was 32 µM (≈ 46.4 µg/mL); in test [7] it was 64 µM (≈ 92.9 µg/mL); in [9], 32 µM (≈ 46.4 µg/mL); in test [4] it was 128 µM (≈ 186 µg/mL).
Consider `CSCC[C@H](NC(=O)[C@H](Cc1cnc[nH]1)NC(=O)[C@H](C)NC(=O)[C@H](CCSC)NC(=O)[C@@H](NC(=O)[C@H](CCCCN)NC(=O)[C@@H]1CCCN1C(=O)[C@@H](N)CC(C)C)C(C)C)C(=O)N[C@@H](CCCCN)C(N)=O` [LPKVMAHMK], for which the minimum inhibitory concentration (MIC) was at least 100 µM against Bacillus subtilis 168, at least 100 µM against Escherichia coli B, 100 µM (≈ 105 µg/mL) against Pseudomonas aeruginosa and 100 µM (≈ 105 µg/mL) in the test on Staphylococcus aureus.
Turning to `CSCC[C@H](NC(=O)[C@H](Cc1cnc[nH]1)NC(=O)[C@H](C)NC(=O)[C@H](CCSC)NC(=O)[C@@H](NC(=O)[C@H](CCCCN)NC(=O)[C@@H]1CCCN1)C(C)C)C(=O)N[C@@H](CCCCN)C(N)=O` [PKVMAHMK], the MIC against Bacillus subtilis 168 and in the test with Escherichia coli B was at least 100 µM throughout.
As to `CC(C)C[C@H](NC(=O)[C@H](C)NC(=O)[C@H](CCCN=C(N)N)NC(=O)[C@H](CCCN=C(N)N)NC(=O)[C@H](Cc1ccccc1)NC(=O)[C@H](C)NC(=O)[C@H](Cc1c[nH]c2ccccc12)NC(=O)CNC(=O)[C@H](CCCN=C(N)N)NC(=O)[C@@H](N)CCCN=C(N)N)C(=O)N[C@@H](C)C(=O)N[C@@H](Cc1ccc(O)cc1)C(=O)NCC(=O)N[C@@H](CCCN=C(N)N)C(=O)N[C@@H](CCCN=C(N)N)C(N)=O` [RRGWAFRRALAYGRR], the MIC in test [1] was over 30 µM; in test [2], 22.2 µM and 30 µM; in test [10], 30 µM (≈ 56.7 µg/mL); in [11], over 30 µM; in test [12], 14.8 µM and 30 µM; in test [4], over 30 µM.
As to `CC[C@H](C)[C@H](NC(=O)[C@H](CCCCN)NC(=O)[C@H](CCCCN)NC(=O)[C@H](Cc1c[nH]c2ccccc12)NC(=O)[C@H](CC(N)=O)NC(=O)[C@@H](N)C(C)C)C(=O)N[C@@H](CC(C)C)C(=O)NCC(=O)N[C@@H](CCCCN)C(=O)N[C@H](C(=O)N[C@H](C(=O)N[C@@H](CCCCN)C(=O)N[C@H](C(=O)N[C@H](C(=O)N[C@@H](CCCCN)C(=O)O)C(C)C)C(C)C)[C@@H](C)CC)[C@@H](C)CC` [VNWKKILGKIIKVVK], the MIC was found to be 1.2 µM (≈ 2.12 µg/mL) with Bacillus subtilis 168, 3.5 µM (≈ 6.18 µg/mL) against Escherichia coli B, 40 µM (≈ 70.7 µg/mL) in the test on Pseudomonas aeruginosa and 40 µM (≈ 70.7 µg/mL) against Staphylococcus aureus.
As for `CC[C@H](C)[C@H](NC(=O)[C@H](CCCCN)NC(=O)[C@H](CCCCN)NC(=O)[C@H](Cc1c[nH]c2ccccc12)NC(=O)[C@H](CC(N)=O)NC(=O)[C@@H](N)C(C)C)C(=O)N[C@@H](CC(C)C)C(=O)N[C@@H](CCCCN)C(=O)N[C@@H](CCCCN)C(=O)N[C@H](C(=O)N[C@H](C(=O)N[C@@H](CCCCN)C(=O)N[C@H](C(=O)N[C@@H](C)C(=O)N[C@@H](CCCCN)C(N)=O)C(C)C)[C@@H](C)CC)[C@@H](C)CC` [VNWKKILKKIIKVAK], the MIC against Bacillus subtilis 168 amounted to 0.7 µM (≈ 1.27 µg/mL); in the test on Escherichia coli B, 0.7 µM (≈ 1.27 µg/mL); in the test on Pseudomonas aeruginosa it was 26.1 µM (≈ 47.2 µg/mL); with Staphylococcus aureus, 15.6 µM (≈ 28.2 µg/mL).
